Experimental data published in patent US8048880B2, “Treatment of cardiovascular disease and dyslipidemia using secretory phospholipase A2 (SPLA2) inhibitors and SPLA2 inhibitor combination therapies” (Anthera Pharmaceuticals, Inc., priority 2007, dated 2011).

How the values were obtained:
Type in all cases: in vivo
ApoE−/− mice [1] = test: En face lesion size in ApoE−/− mice on high fat diet, A-002 and/or statin (Example 3); conditions: 0.02 g/kg pravastatin in diet alone, 12 weeks
Procedure: (§1) Body weight, plasma total cholesterol, and plasma HDL levels were measured for six groups of twelve ApoE^−/− mice. The mice were then placed on a high fat diet for twelve weeks to allow for formation of significant fatty atherosclerotic plaques. The high fat diet was a modified version of the Western diet (TD.88137, Harlan Teklad, Madison, Wis.) consisting of casein (195 g/kg), DL-methionine (3 g/kg), sucrose (341.44 g/kg), corn starch (150 g/kg), anhydrous milkfat (210 g/kg), cholesterol (1.5 g/kg), cellulose (50 g/kg), mineral mix AlN-76 (Teklad; 35 g/kg), calcium carbonate (4 g/kg), vitamin mix (Teklad #40060; 10 g/kg), ethyoxyquin (antioxidant, 0.04 g/kg), and either 0.0156 g/kg (“low dose”) A-002 (Group A), 1.56 g/kg (“high dose”) A-002 (Group B), 0.02 g/kg pravastatin (Group C), low dose A-002 plus 0.02 g/kg pravastatin (Group D), high dose A-002 plus 0.02 g/kg pravastatin (Group E), or vehicle only (Group F). Mice were administered diets A-F in a blinded manner, and food was provided ad libitum. The diet was initially prepared based on the assumption that each mouse weighed 22.5 g and ate 4.5 g/day. Based on body weight and food consumption, the diet was modified over the 12 week course of treatment to adjust for a body weight of 26 g and a food intake of 2.5 g/day. The dosages of A-002 were selected to cover a range of 100-fold based on pharmacokinetics in ApoE^−/− mice as well as toxicology and previously observed efficacy in this model.
After twelve weeks, mice were sacrificed and plasma, heart tissue, and aortic tissue were collected. En face lesion size was determined via digital imaging analysis. Plaque content (as measured as en face lesion) was reduced in mice administered A-002 alone, statin alone, or A-002 in combination with statin. The reduction in plaque content in mice administered A-002 plus statin was substantially greater than the reduction in mice administered either compound alone (Table 2, compare Group D vs. Groups A and C; Group E vs. Groups B and C). Further, the reduction in plaque content in mice administered A-002 plus statin was substantially greater than the sum of the reduction in plaque content in mice administered A-002 alone and mice administered statin alone.

ApoE−/− mice [2] = test: Plasma total cholesterol and HDL levels in ApoE−/− mice, A-002 and/or statin (Example 3); conditions: 0.02 g/kg pravastatin in diet alone, 12 weeks
Procedure: as §1
Plasma total cholesterol and HDL levels were measured. Mean levels of total cholesterol were decreased in mice administered A-002 alone or in combination with statin (Table 3, FIG. 6). […] Mean levels of HDL were increased in mice administered A-002 at either dosage (Table 4). This increase was greater in mice administered high dose A-002 plus statin than in mice administered high dose A-002 or statin alone (Table 4 compare Group E vs. Groups B and C; FIG. 7).

[3] = test system: human subjects with CVD, specifically stable coronary artery disease; test: Serum lipid levels in humans, A-002 twice a day for eight weeks (Example 4)
Procedure: 204 human subjects from the United States with CVD, specifically stable coronary artery disease, were randomized to receive placebo or A-002 via oral administration twice a day over an eight week administration period at dosages of 50 mg, 100 mg, 250 mg, or 500 mg. Levels of various lipids and inflammatory markers were measured at the outset of the trial and at the end of weeks four and/or eight. For data sets with a normal distribution, mean levels of lipids or inflammatory markers were analyzed. For data sets with non-normal distribution, median levels were analyzed. […] In addition, administration of A-002 decreased median levels of CRP (Table 11).
The combined effect of A-002 and statin administration on LDL levels was tested in a population of 332 subjects. This population consisted of the original 204 United States subjects, plus an additional 128 subjects from the Ukraine with stable CAD that received placebo or A-002 based according to the same protocol as the United States subjects. […] Similarly, A-002 decreased LDL levels in subjects receiving a variety of non-statin compounds used in the treatment of CVD, including ezetimibe, AEGR-733/ezetimibe, colesevelam hydrochloride (WelChol®), MK-0524A (Cordaptive®), lisinopril/MC-1 antibody (MC-4232), and Angiotensin Receptor Blocker (ARB)/MC-1 (MC-4262).

[4] = summary Table 20, A-002 alone, statin alone or A-002 plus statin

Row | SMILES | Change in mean % en face lesion vs. control (ApoE−/− mice [1]) [%] | Mean % en face lesion (ApoE−/− mice [1]) [%] | Mean HDL concentration (ApoE−/− mice [2]) [mg/dL] | Mean total cholesterol concentration (ApoE−/− mice [2]) [mg/dL] | increase of mean serum small LDL particle levels ([3]; at eight weeks, United States population, statin alone (Table 14)) [%] | decrease of mean serum LDL levels ([3]; at eight weeks, United States subjects with baseline LDL of 72 mg/dl or greater, text restating Tables 15 and 19) [%] | decrease of mean serum LDL levels ([3]; at week eight, combined United States and Ukraine populations, Tables 16 and 18) [%] | decrease of mean serum LDL levels ([3]; at week four, combined United States and Ukraine populations, Tables 16 and 18) [%] | Observed change following administration: Mean serum [LDL] at week 4 [3, 4] [%] | Observed change following administration: Mean serum [LDL] at week 8 [3, 4] [%] | Observed change following administration: Mean serum [LDL] in ≧72 mg/dl subpopulation at week 8 [3, 4] [%] | Observed change following administration: Mean serum [small LDL particle] at week 8 [3, 4] | Observed change following administration: Mean serum [LDL] at week 8 ([3]; summary Table 22, A-002 alone, ezetimibe alone or A-002 plus ezetimibe) [%]
1 | CC[C@H](C)C(=O)O[C@H]1C[C@H](O)C=C2C=C[C@H](C)[C@H](CC[C@@H](O)C[C@@H](O)CC(=O)O)[C@H]21 [Statin, pravastatin, reference compound] | −0.813 | 4.814 | 14.500 | 1405.417 | 13.26 | 4.40 | 2.15 | 3.36 | −3.36 | −2.15 | −4.40 | +13.26% | –
2 | O=C1[C@H](CC[C@H](O)c2ccc(F)cc2)[C@@H](c2ccc(O)cc2)N1c1ccc(F)cc1 [ezetimibe, reference compound] | – | – | – | – | – | – | – | – | – | – | – | – | −1.7
